Reference: US20260234543A1, “MICROORGANISMS AND METHODS FOR REDUCING BY-PRODUCTS” (Genomatica, Inc., priority 2023, published 2026)

What was measured:
[1] = test system: acyl-CoA synthetase (ACS) (SEQ ID NO: 1); assay: ACS activity on substrates of various chain lengths (enzymatic coupled assay for detection of AMP); assay type: biochemical, Ruegeria pomeroyi; details: 5 mM substrate, pH 7.5; for Activity: 250 μM CoA, 1 mM ATP
Experimental: Purified acyl-CoA synthetase (ACS) (GenBank Accession No. WP_011046428.1; see, SEQ ID NO: 1) was assayed for activity on a range of substrates of various chain lengths. The substrates tested, which were conjugate bases (or carboxylates) of C2-C8 carboxylic acids, included acetate (C2), acetoacetate (C4), butyrate (C4), (R)- and(S)-3-hydroxybutryate ((R)-3-HB and(S)-3HB; C4), succinate (C4), hexanoate (C6), adipate (C6), 6-aminocaproic acid (6ACA; C6), and octanoate (C8).
An enzymatic coupled assay for detection of AMP, which is a co-product of the synthetase/ligase enzymatic reaction catalyzed by the ACS/CoA ligase, was used. The coupling enzymes used were adenylate kinase, pyruvate dehydrogenase, and lactate dehydrogenase, which catalyze reactions resulting in the oxidation of 2 NADH molecules per molecule of AMP produced by the ACS/CoA ligase enzymatic reaction. The coupling reagents for AMP detection were phospho (enol) pyruvate and NADH. The ACS/CoA ligase enzymatic reactions were followed by monitoring NADH oxidation over time, by measuring absorbance at 340 nm.
Reactions were set up in 96-well absorbance plates, in aqueous buffer at pH 7.5, and 5 mM of conjugate base substrate, 250 μM of Coenzyme A (CoA), 1 mM of ATP, 5 mM of MgCl2, 1 mM of phospho (enol) pyruvate, 500 μM of NADH, and non-rate limiting concentrations of the three coupling enzymes (adenylate kinase, pyruvate dehydrogenase, and lactate dehydrogenase), were added for each reaction. The ACS enzyme was added at a concentration that was appropriate for measuring a linear change on absorbance over up to 20 minutes. For example, 100 nM of ACS was added for the reactions with butyrate or 3-HB as the substrates. Negative control reactions omitted the substrate (conjugate base), the CoA, or the ACS enzyme.

[2] = test system: CAR enzyme (SEQ ID NO: 3); assay: In vitro CAR activity for conversion of 3HB to 3HB-Ald (NADPH absorbance at 340 nm); assay type: biochemical, Mycobacterium avium; details: for CAR Activity: 1 μM CAR, 0.5 mM NADPH, 1 mM ATP
Experimental: In vitro CAR activity for the conversion of 3HB to 3HB—Ald was determined by direct measurement of the decrease in NADPH concentration, by measuring NADPH absorbance at 340 nm over time. The reactions were carried out in 96-well absorbance plates, and varying concentrations of 3HB substrate (see, TABLE 8 below), 0.5 mM of NADPH, 1 mM of ATP, 5 mM of MgCl2, and 1 μM of CAR enzyme (see, SEQ ID NO: 3) were added. A negative control reaction was included, in which addition of 3HB substrate was omitted. CAR activity was measured as μM of NADPH oxidized per minute per μM of CAR enzyme.

SMILES | Activity [1] | ACS activity on substrate (in words) [1] | further results
C[C@@H](O)CC(=O)O [(R)-3HB, (3R)-hydroxybutyrate] | 322 μM AMP/min/μM ACS |  | 
C[C@H](O)CC(=O)O [(S)-3HB, (3S)-hydroxybutyrate] | 222 μM AMP/min/μM ACS |  | 
CC(=O)O [Acetate] | 38 μM AMP/min/μM ACS | exhibits activity | 
CC(=O)CC(=O)O [Acetoacetate] | 34 μM AMP/min/μM ACS | exhibits activity | 
O=C(O)CCCCC(=O)O [Adipate, adipate] | No activity |  | 
CCCCCCCC(=O)O [Octanoate, octanoate] | No activity |  | 
CC(O)CC(=O)O (stereo not drawn) [Strain 3HB, 3-hydroxybutyrate] |  | has activity on both the (R) and(S) forms | CAR activity as a function of 3HB concentration (in words) ([2]; 0.78125-50 mM 3HB): CAR activity increases as the concentration of 3HB substrate increases; CAR Activity ([2]; 3HB substrate 0.78125 mM): 0.47 μM NADPH oxidized/min/μM CAR; CAR Activity ([2]; 3HB substrate 1.5625 mM): 1.30 μM NADPH oxidized/min/μM CAR; CAR Activity ([2]; 3HB substrate 3.125 mM): 2.61 μM NADPH oxidized/min/μM CAR; CAR Activity ([2]; 3HB substrate 6.25 mM): 4.24 μM NADPH oxidized/min/μM CAR; CAR Activity ([2]; 3HB substrate 12.5 mM): 5.87 μM NADPH oxidized/min/μM CAR; CAR Activity ([2]; 3HB substrate 25 mM): 8.81 μM NADPH oxidized/min/μM CAR; CAR Activity ([2]; 3HB substrate 50 mM): 10.25 μM NADPH oxidized/min/μM CAR
NCCCCCC(=O)O [Strain 6ACA, 6-aminocaproic acid] | 0.015 μM AMP/min/μM ACS | exhibits activity | 
O=C(O)CCC(=O)O [Succinate, succinate] | 0.06 μM AMP/min/μM ACS | exhibits activity | 
